Article PMC11200585, “Prospects for Prostate Cancer Chemotherapy: Cytotoxic Evaluation and Mechanistic Insights of Quinolinequinones with ADME/PK Profile” (Biomedicines, 2024)

What was measured:
Assay type in all cases: cell-based, human
OVCAR-8 [1] = experiment: NCI-60 five-dose assay (ovarian cancer); details: 48 h, SRB
SNB-75 [2] = experiment: NCI-60 one-dose screen (CNS cancer); details: 10 µM single dose, 48 h
Procedure: (§1) The obtained quinolinequinones were submitted to NCI, Bethesda, USA, and, as per standard protocol of NCI, all compounds were evaluated for their antiproliferative activity at single-dose assay (10 µM concentration in DMSO) on a panel of 60 cancer cell lines derived from leukemia, non-small-cell lung, colon, CNS, melanoma, ovarian, renal, prostate, and breast, as per protocol. Tested compounds were added to the microtiter culture plates followed by incubation for 48 h at 37 °C. Sulforhodamine B (SRB), a protein-binding dye, is used for endpoint determination. The percent of the growth of the treated cells was determined in comparison to the untreated control cells and the results of each tested compound were reported. Data from one-dose experiments pertain to the percentage growth at 10 μM [16, 17, 18].

SF-295 [3] = experiment: NCI-60 one-dose screen (CNS cancer); details: 10 µM single dose, 48 h
Procedure: as §1

SNB-19 [4] = experiment: NCI-60 one-dose screen (CNS cancer); details: 10 µM single dose, 48 h
Procedure: as §1

SF-539 = experiment: NCI-60 one-dose screen (CNS cancer); details: 10 µM single dose
Procedure: as §1

U251 = experiment: NCI-60 one-dose screen (CNS cancer); details: 10 µM single dose, 48 h
Procedure: as §1

SF-268 = experiment: NCI-60 one-dose screen (CNS cancer); details: 10 µM single dose, 48 h
Procedure: as §1

CCRF-CEM = experiment: NCI-60 one-dose screen (leukemia); details: 10 µM single dose, 48 h
Procedure: as §1

SR [5] = experiment: NCI-60 one-dose screen (leukemia); details: 10 µM single dose, 48 h
Procedure: as §1

K-562 [6] = experiment: NCI-60 one-dose screen (leukemia); details: 10 µM single dose, 48 h
Procedure: as §1

RPMI-8226 = experiment: NCI-60 one-dose screen (leukemia); details: 10 µM single dose, 48 h
Procedure: as §1

DU-145 = experiment: NCI-60 five-dose assay (prostate cancer); details: 48 h, SRB
M14 = experiment: NCI-60 five-dose assay (melanoma); details: 48 h, SRB
OVCAR-5 = experiment: NCI-60 one-dose screen (ovarian cancer); details: 10 µM single dose, 48 h
Procedure: as §1

SK-OV-3 = experiment: NCI-60 one-dose screen (ovarian cancer); details: 10 µM single dose, 48 h
Procedure: as §1

IGROV1 = experiment: NCI-60 one-dose screen (ovarian cancer); details: 10 µM single dose, 48 h
Procedure: as §1

OVCAR-8 [7] = experiment: NCI-60 one-dose screen (ovarian cancer); details: 10 µM single dose
Procedure: as §1

NCI/ADR-RES = experiment: NCI-60 one-dose screen (ovarian cancer); details: 10 µM single dose
Procedure: as §1

OVCAR-4 = experiment: NCI-60 one-dose screen (ovarian cancer); details: 10 µM single dose, 48 h
Procedure: as §1

HCT-15 [8] = experiment: NCI-60 five-dose assay (colon cancer); details: 48 h, SRB
SR [9] = experiment: NCI-60 five-dose assay (leukemia); details: 48 h, SRB
HT29 = experiment: NCI-60 one-dose screen (colon cancer); details: 10 µM single dose, 48 h
Procedure: as §1

HCT-116 = experiment: NCI-60 one-dose screen (colon cancer); details: 10 µM single dose, 48 h
Procedure: as §1

HCC-2998 = experiment: NCI-60 one-dose screen (colon cancer); details: 10 µM single dose, 48 h
Procedure: as §1

COLO 205 [10] = experiment: NCI-60 one-dose screen (colon cancer); details: 10 µM single dose, 48 h
Procedure: as §1

HCT-15 [11] = experiment: NCI-60 one-dose screen (colon cancer); details: 10 µM single dose, 48 h
Procedure: as §1

SW-620 = experiment: NCI-60 one-dose screen (colon cancer); details: 10 µM single dose, 48 h
Procedure: as §1

KM12 = experiment: NCI-60 one-dose screen (colon cancer); details: 10 µM single dose, 48 h
Procedure: as §1

RXF 393 = experiment: NCI-60 five-dose assay (renal cancer); details: 48 h, SRB
OVCAR-3 = experiment: NCI-60 five-dose assay (ovarian cancer); details: 48 h, SRB
NCI-H23 = experiment: NCI-60 five-dose assay (non-small cell lung cancer); details: 48 h, SRB
SNB-75 [12] = experiment: NCI-60 five-dose assay (CNS cancer); details: 48 h, SRB
HS 578T = experiment: NCI-60 five-dose assay (breast cancer); details: 48 h, SRB
SK-MEL-5 = experiment: NCI-60 five-dose assay (melanoma); details: 48 h, SRB
SF-295 [13] = experiment: NCI-60 five-dose assay (CNS cancer); details: 48 h, SRB
ACHN = experiment: NCI-60 five-dose assay (renal cancer); details: 48 h, SRB
K-562 [14] = experiment: NCI-60 five-dose assay (leukemia); details: SRB
COLO 205 [15] = experiment: NCI-60 five-dose assay (colon cancer); details: 48 h, SRB
SNB-19 [16] = experiment: NCI-60 five-dose assay (CNS cancer); details: 48 h, SRB
[17] = Homo sapiens, read-out: LC50 (the source's name)

Work on `COc1ccccc1NC1=C(Cl)C(=O)c2nc(C)ccc2C1=O` [AQQ1] yielded a TGI (OVCAR-8 [1]) of 3.25 µM, a GI50 (OVCAR-8 [1]; Homo sapiens) of 1.61 µM and a CC50 (OVCAR-8 [1]; [17]) of 6.59 µM. For the same compound, the “GP (growth percentage)” value (SNB-75 [2]) was 105.38%, the “GP (growth percentage)” value (SF-295 [3]) was 96.61% and the “GP (growth percentage)” value (SNB-19 [4]) was 38.92%. The “GP (growth percentage)” value (SF-539; 48 h) was 1.78%, the inhibition at 10 µM (SF-539; Homo sapiens) was 98.2% and the “GP (growth percentage)” value (U251) was 62.79%. For the same compound, the “GP (growth percentage)” value (SF-268) was 47.42%, the “GP (growth percentage)” value (CCRF-CEM) was −4.94% and the “GP (growth percentage)” value (SR [5]) was −27.92%. The “GP (growth percentage)” value (K-562 [6]) was −21.12%, the “GP (growth percentage)” value (RPMI-8226) was −30.44% and the TGI (DU-145) was 3.11 µM. The GI50 (DU-145; Homo sapiens) was 1.72 µM, the CC50 (DU-145; [17]) was 5.62 µM and the TGI (M14) was 3.81 µM. For the same compound, the GI50 (M14; Homo sapiens) was 1.82 µM, the LC50 (M14; Homo sapiens) was 7.96 µM and the “GP (growth percentage)” value (OVCAR-5) was 78.91%. For the same compound, the “GP (growth percentage)” value (SK-OV-3) was 88.34%, the “GP (growth percentage)” value (IGROV1) was −83.51% and the “GP (growth percentage)” value (OVCAR-8 [7]; 48 h) was 9.87%. For the same compound, the inhibition at 10 µM (OVCAR-8 [7]; Homo sapiens) was 90.1%, the “GP (growth percentage)” value (NCI/ADR-RES; 48 h) was 7.08% and the inhibition at 10 µM (NCI/ADR-RES; Homo sapiens) was 92.9%. The “GP (growth percentage)” value (OVCAR-4) was −98.22%, the TGI (HCT-15 [8]) was 3.02 µM and the GI50 (HCT-15 [8]; Homo sapiens) was 1.33 µM. The CC50 (HCT-15 [8]; [17]) was 6.83 µM, the TGI (SR [9]) was 4.25 µM and the GI50 (SR [9]; Homo sapiens) was 0.794 µM. The CC50 (SR [9]; [17]) was over 100 µM, the “GP (growth percentage)” value (HT29) was 75.04% and the “GP (growth percentage)” value (HCT-116) was −80.64%. The “GP (growth percentage)” value (HCC-2998) was 58.90%, the “GP (growth percentage)” value (COLO 205 [10]) was 111.34% and the “GP (growth percentage)” value (HCT-15 [11]) was −47.03%. For the same compound, the “GP (growth percentage)” value (SW-620) was −63.13%, the “GP (growth percentage)” value (KM12) was 69.40% and the TGI (RXF 393) was 2.76 µM. The GI50 (RXF 393; Homo sapiens) was 1.42 µM, the LC50 (RXF 393; Homo sapiens) was 5.36 µM and the TGI (OVCAR-3) was 2.40 µM. For the same compound, the GI50 (OVCAR-3; Homo sapiens) was 1.12 µM, the CC50 (OVCAR-3; [17]) was 5.15 µM and the TGI (NCI-H23) was 3.30 µM. It also gave a GI50 (NCI-H23; Homo sapiens) of 1.47 µM, a CC50 (NCI-H23; [17]) of 7.45 µM and a TGI (SNB-75 [12]) of 2.84 µM. The GI50 (SNB-75 [12]; Homo sapiens) was 1.5 µM, the LC50 (50% lethal concentration) (SNB-75 [12]; Homo sapiens) was 5.39 µM and the TGI (HS 578T) was 5.64 µM. It also gave a GI50 (HS 578T; Homo sapiens) of 2.27 µM, a CC50 (HS 578T; [17]) of over 100 µM and a TGI (SK-MEL-5) of 3.17 µM. It also gave a GI50 (SK-MEL-5; Homo sapiens) of 1.75 µM, a CC50 (SK-MEL-5; [17]) of 5.74 µM and a TGI (SF-295 [13]) of 3.42 µM. The GI50 (SF-295 [13]; Homo sapiens) was 1.85 µM, the LC50 (50% lethal concentration) (SF-295 [13]; Homo sapiens) was 6.32 µM and the TGI (ACHN) was 2.80 µM. For the same compound, the GI50 (ACHN; Homo sapiens) was 1.47 µM, the LC50 (ACHN; Homo sapiens) was 5.34 µM and the TGI (K-562 [14]; 48 h) was 2.94 µM. It also gave a GI50 (K-562 [14]; Homo sapiens, K562, 48 h) of 0.29 µM, an LC50 (K-562 [14]; Homo sapiens, K562, 48 h) of over 100 µM and a TGI (COLO 205 [15]) of 3.87 µM. For the same compound, the GI50 (COLO 205 [15]; Homo sapiens) was 1.78 µM, the TGI (SNB-19 [16]) was 3.72 µM and the GI50 (SNB-19 [16]; Homo sapiens) was 1.81 µM. It also gave a CC50 (SNB-19 [16]; [17]) of 7.64 µM.
